Common to all, as to assay type: biochemical
For one assay, the target named is T1, Aβ42 self-aggregation (Homo sapiens, UniProt P05067).
T1 construct: Beta-amyloid protein, fragment 1-42; purchased GeneCust
In words: biochemical. As to conditions: for inhibition at 20 µM: read-out: Aβ42 Self-Aggreg. Inhib; for Aβ42 Self-Aggreg. Inhib: 20 μM inhibitor, absence of copper, thioflavin-T fluorescence, 37 °C 24 h. The protocol:
(§1) The inhibition of Aβ42 aggregation and Cu(II)-induced Aβ42 aggregation, carried out by the RIV–BIM hybrids, was studied using a reported method based on the fluorescence emission of thioflavin T [52, 53].
(§2) Solutions of phosphate buffer 0.215 M at pH = 8.00, Na2CO3 300 μM in distilled water, NaOH 250 mM in distilled water, glycine-NaOH 50 mM buffer at pH = 8.50 and CuCl2 240 μM in phosphate buffer were prepared. Stock solutions of […] of the RIV–BIM compounds were prepared in MeOH (with 20% DMSO). Working solutions of 240 μM of the RIV–BIM hybrids were prepared by the proper dilution of their stock solutions with phosphate buffer. A working solution of glycine-NaOH 50 mM buffer at pH = 8.50 containing 5 μM of thioflavin T (ThT) was prepared daily. Aβ42 (GeneCust) was pre-treated with 1,1,1,3,3,3-hexafluoro-2-propanol (HFIP) to obtain a solution of 0.149 mM by brief sonication and vortexing, which was kept covered overnight at room temperature. From the Aβ42 solution, aliquots of 250 μL were placed into Eppendorf tubes under ice and set to evaporate inside a hood at room temperature overnight. When the contents of the Eppendorf tubes were dried, the Aβ42 aliquots were stored at −20 °C until needed. To obtain the Aβ42 working solution, the Aβ42 aliquots were dissolved with a freshly prepared mixture of 69.5 μL of CH3CN/Na2CO3 (300 μM)/NaOH (250 mM) (48.3/48.3/3.4, v/v/v) by brief sonication and vortexing to obtain an Aβ42 solution of 531.24 μM. To this solution, 392.5 μL of phosphate buffer was added, achieving an Aβ42 working solution of 80 μM. To prepare the incubations, three replicates of Aβ42 alone (30 μL Aβ42 80 μM + 30 μL phosphate buffer), Aβ42 with RIV–BIM (30 μL Aβ42 80 μM + 10 μL RIV–BIM 240 μM + 20 μL phosphate buffer), Aβ42 with copper (30 μL Aβ42 80 μM + 10 μL CuCl2 240 μM + 20 μL phosphate buffer) and Aβ42 with copper and RIV–BIM (30 μL Aβ42 80 μM + 10 μL CuCl2 240 μM + 10 μL RIV–BIM 240 μM + 10 μL phosphate buffer) were placed in Eppendorfs. To obtain the blank solutions, a similar number of Eppendorfs, replacing Aβ42 with phosphate buffer, were prepared. Incubations were performed in a water bath at 37 °C with agitation for 24 h. Afterwards, 180 μL of glycine-NaOH 50 mM buffer at pH = 8.50 containing 5 μM of ThT was added to each Eppendorf and then they were vortexed. Finally, 200 μL of solution from each Eppendorf was placed in the wells of a microplate and fluorescence measurements were monitored using a Spectramax Gemini EM (Molecular Devices) fluorimeter with an excitation wavelength of 446 nm and an emission wavelength of 485 nm. Blank signals were subtracted from the corresponding samples. The fluorescence intensity of the Aβ42 + RIV–BIM solution was compared to that of the Aβ42 solution to obtain the inhibition of Aβ42 self-aggregation for each compound. The fluorescence intensity of the Aβ42 + Cu(II) + RIV–BIM solution was compared to that of the Aβ42 + Cu(II) solution to obtain the inhibition of the Cu(II)-induced Aβ42 aggregation for each hybrid.
(§3) The anti-amyloidogenic capacity of the compounds was assessed in vitro using the thioflavin T (ThT) method. To record fluorescence emission, excitation (446 nm) and emission (485 nm) wavelengths were used. When ThT binds to amyloid fibrils, an increase in absorbance and emission of this dye occurs with concomitant red shifts of the respective spectra. The percent of inhibition of Aβ42 aggregation is shown in Table 1, and the assays were performed in the presence of 20 μM of inhibitor. These concentration conditions were used to overcome solubility problems of some compounds in the aqueous phosphate buffer working medium. […]. […]

Another assay addresses T2, Aβ42 + Cu(II) fibrils (Homo sapiens, UniProt P05067).
T2 construct: Beta-amyloid protein, fragment 1-42; purchased Sigma-Aldrich
Description: TEM assay of Aβ42 fibrils in the presence of Cu(II). As to conditions: 48 h 37 °C; for Aβ42 fibril width: TEM, CAβ42 = CCu = CL = 50 µM, Aβ42 + Cu(II) 6.8 ± 0.3 nm. The procedure:
To perform the TEM assays, commercial Aβ42 purchased from Sigma-Aldrich was pre-treated with pure HFIP, a beta-sheet disruptor, to obtain homogeneous and monomeric Aβ42 [54]. Then, 222 µL of HFIP was added to 1 mg of Aβ42, after which the mixture was vortexed and aliquoted into Eppendorfs. The Eppendorfs were placed in a SpeedVac at 45 °C for 30 min until all HFIP was evaporated. Pre-treated Aβ42 was stored at −20 °C until use. To start the amyloid incubations, pre-treated Aβ42 was equilibrated at room temperature for 30 min. A solution of 5 mM was obtained by dissolution in DMSO and sonication for 5 min. Subsequently, 10 mM HCl was added to obtain a working Aβ42 solution of 200 µM. Stock solutions of Cu(II) and RIV–BIM compounds (4a–d, 5a,b and 5d) at 200 µM were prepared on the same day and working solutions of Aβ42, Aβ42 + Cu(II), Aβ42 + RIV–BIM and Aβ42 + Cu(II) + RIV–BIM (CAβ42 = CCu = CL = 50 µM) were prepared by diluting stock solutions in 10 mM HCl. Working solutions were incubated for 48 h at 37 °C before being analyzed by TEM. Samples were negatively stained with uranyl acetate 2% (w/v) and analyzed at 100 kv with a JEOL JEM 1400 Plus transmission electron microscope. Fibrils of Aβ42 alone were compared with Aβ42 + RIV–BIM fibrils, and fibrils of Aβ42 + Cu(II) were compared with Aβ42 + Cu(II) + RIV–BIM in order to evaluate the inhibition of the amyloid aggregation, and the widths and lengths of fibrils were measured for each sample. The ImageJ program was used to measure the fibrils (n = 200).
When fibrils were incubated in the presence of Cu(II) for 48 h (Figure 6), stronger amyloid elongated aggregation was evidenced. In fact, incubation with Cu(II) in the absence of RIV–BIM compounds (Figure 5a) presented higher aggregation than that corresponding to Aβ42 alone (Figure 5a). Based on the TEM images contained in Figure 6, compounds belonging to the linear series of hybrids (4a–4d) seem to exert minor effects on Cu(II)-induced Aβ42 aggregation according to the previous fluorescence data.
Fibril width for Aβ42 + Cu(II) + RIV–BIM incubations was also measured (Figure 5b). When Aβ42 was incubated with Cu(II) ((6.8 ± 0.3) nm), the amyloid fibrils suffered a width increase of 38.8%, in contrast to Aβ42 alone (Figure 5a).

Assay [1] addresses T3, Cu(II)-induced Aβ42 aggregation (Homo sapiens, UniProt P05067).
T3 construct: Beta-amyloid protein, fragment 1-42; purchased GeneCust
Description: Inhibition of Cu(II)-induced Aβ42 aggregation (thioflavin T fluorescence). The following applies: for inhibition at 20 µM: read-out: Aβ42 Cu-Ind. Aggreg. Inhib, copper (40 μM), 20 μM inhibitor, thioflavin-T fluorescence, 37 °C 24 h. The procedure:
as §1, §2, §3

Several values for one entry are separate records, joined by “and”; a condition that tells them apart may be missing. Equal values may be shown once.

T3 sequence (P05067 672-713 limits assumed): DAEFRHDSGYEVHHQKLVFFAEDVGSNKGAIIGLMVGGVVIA
T2 sequence (P05067 672-713 limits assumed): as above
T1 sequence (P05067 672-713 limits assumed): as above

For `CCN(C)C(=O)Oc1cccc(NC(=O)c2ccc3nc(-c4ccccc4O)[nH]c3c2)c1` [Compound 4a, 3-(2-(2-Hydroxyphenyl)-1H-benzo[d]imidazole-6-carboxamido)phenyl Ethylmethylcarbamate], the inhibition at 20 µM on Aβ42 self-aggregation was 39%; in assay [1] it was 41.2%. The Aβ42 fibril width on Aβ42 + Cu(II) fibrils was determined as 4.7 nm.

For the compound `CCN(C)C(=O)Oc1cccc(CNC(=O)c2ccc3nc(-c4ccccc4O)[nH]c3c2)c1` [Compound 4b, 3-((2-(2-Hydroxyphenyl)-1H-benzo[d]imidazole-6-carboxamido)methyl) Phenyl Ethylmethylcarbamate], the inhibition at 20 µM at Aβ42 self-aggregation is 39.6%; in assay [1] it was 48.8%. Also, the Aβ42 fibril width at Aβ42 + Cu(II) fibrils amounted to 4.8 nm.

Take `CCN(C)C(=O)Oc1cccc(CCNC(=O)c2ccc3nc(-c4ccccc4O)[nH]c3c2)c1` [Compound 4c, 3-(2-(2-(2-Hydroxyphenyl)-1H-benzo[d]imidazole-6-carboxamido)ethyl) Phenylethylmethylcarbamate]: on Aβ42 self-aggregation, the “Aβ42 Self-Aggreg. Inhib” value is on record as “very weakly effective”. Also, the inhibition at 20 µM at Aβ42 self-aggregation was determined as 21.2%; in assay [1] it was 22%. For the same compound, the Aβ42 fibril width at Aβ42 + Cu(II) fibrils stood at 4.6 nm.

Take `CCN(C)C(=O)Oc1ccc(CCCNC(=O)c2ccc3nc(-c4ccccc4O)[nH]c3c2)cc1` [Compound 4d, 4-(3-(2-(2-Hydroxyphenyl)-1H-benzo[d]imidazole-6-carboxamido)propyl) Phenyl Ethylmethylcarbamate]: on Aβ42 self-aggregation, the “Aβ42 Self-Aggreg. Inhib” value is reported as “very weakly effective” and the inhibition at 20 µM was found to be 20.1%. In assay [1], the inhibition at 20 µM worked out at 21.3%.

As to `CCN(C)C(=O)Oc1cccc(NC(=O)c2cccc3[nH]c(-c4ccccc4O)nc23)c1` [Compound 5a, 3-(2-(2-Hydroxyphenyl)-1H-benzo[d]imidazole-4-carboxamido)phenyl Ethylmethylcarbamate], the inhibition at 20 µM at Aβ42 self-aggregation was 44.5%. In addition, at Aβ42 + Cu(II) fibrils, the “Appearance of Aβ42 aggregation in TEM images” value (“Appearance of Aβ42 aggregation” below) is “sparser amyloid aggregation”; the Aβ42 fibril width was 4.9 nm and 4.9 ± 0.2 nm. For the same compound, in assay [1], the inhibition at 20 µM came to 45.4%.

Consider `CCN(C)C(=O)Oc1cccc(CNC(=O)c2cccc3[nH]c(-c4ccccc4O)nc23)c1` [Compound 5b, 3-((2-(2-Hydroxyphenyl)-1H-benzo[d]imidazole-4-carboxamido)methyl) Phenyl Ethylmethylcarbamate], for which the inhibition at 20 µM at Aβ42 self-aggregation was determined as 58.7%. At Aβ42 + Cu(II) fibrils, the “Appearance of Aβ42 aggregation” value is on record as “sparser amyloid aggregation” and the Aβ42 fibril width came to 4.1 nm. In addition, the inhibition at 20 µM in assay [1] was 60.8%.

Take `CCN(C)C(=O)Oc1ccc(CCCNC(=O)c2cccc3[nH]c(-c4ccccc4O)nc23)cc1` [Compound 5d, 4-(3-(2-(2-Hydroxyphenyl)-1H-benzo[d]imidazole-4-carboxamido) Propyl) Phenyl Ethyl(methyl)carbamate]: the results for the inhibition at 20 µM (at Aβ42 self-aggregation; in assay [1]) were 42.1% and 41.2 to 60.8%, respectively. Besides, at Aβ42 + Cu(II) fibrils, the “Appearance of Aβ42 aggregation” value was “sparser amyloid aggregation”. Besides, at Aβ42 + Cu(II) fibrils, the Aβ42 fibril width turned out to be 3.9 nm. Besides, the “Aβ42 Cu-Ind. Aggreg. Inhib” value in assay [1] (copper (40 μM), 20 μM inhibitor, thioflavin-T fluorescence, 37 °C 24 h) stood at 40.3%.

Values taken from PMC9313321 (Biomedicines, 2022).
